Starred links: 1 amine or outer side, 2 acyl side, 3 side chain; linkers in the order of their positions; H or OH if unused. Non-standard residues stand in square brackets, D forms with d. Residues, ends and D or L forms follow the SMILES beside them. X74 = C[C@H](CCN1CCN2C(=O)OC[C@@H]2C1)[C@@H](C(=O)[*:2])N(C)[*:1]; X48 = C[C@@H](CN1CCN(S(C)(=O)=O)CC1)[C@@H](C(=O)[*:2])N(C)[*:1]; X28 = CCN1CCN(C(=O)OC[C@H](C)[C@@H](C(=O)[*:2])N(C)[*:1])CC1; X38 = C[C@@H](CN1CCN2C(=O)OCC2C1)[C@@H](C(=O)[*:2])N(C)[*:1]; X72 = C[C@H](CCN1CCN(C2CCC2)CC1)[C@@H](C(=O)[*:2])N(C)[*:1]; X67 = C[C@H](CCN1CCOC[C@@H]1C)[C@@H](C(=O)[*:2])N(C)[*:1]; X68 = C[C@H](CCN1CCC(C#N)CC1)[C@@H](C(=O)[*:2])N(C)[*:1]; X71 = COC1CN(CC[C@@H](C)[C@@H](C(=O)[*:2])N(C)[*:1])C1; X65 = C[C@H](CCN1CCCCC1)[C@@H](C(=O)[*:2])N(C)[*:1]; MeBmt = C/C=C/C[C@@H](C)[C@@H](O)[C@H](NC)C(=O)O; NMeL = CN[C@@H](CC(C)C)C(=O)O; NMeV = CN[C@H](C(=O)O)C(C)C; dNMeA = CN[C@H](C)C(=O)O; Abu = CC[C@H](N)C(=O)O
What was measured:
[1] = system: peripheral blood mononuclear cells (PBMC); test: Anti-proliferative or immunosuppressive activity, BrdU incorporation in PHA-stimulated PBMC; format: cell-based; settings: PHA 3 μg/ml, 60 hour compound treatment; read-out: EMV PBMC IC50
Summary of the method: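 Fresh PBMCs from two donors, 30,000 per well in X-VIVO 15 medium, stimulated with 3 μg/ml PHA to drive T-cell proliferation. Proliferation measured as BrdU incorporation into DNA by BrdU ELISA.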

[2] = molecular target: CypF (Homo sapiens (Human), UniProt P30405); test: Inhibitor binding to cyclophilin proteins by SPR, CypF; settings: 1:1 binding model
Summary of the method: (§1)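 A 1:1 model fitted to single-cycle kinetic SPR data gave association and dissociation rates and KD. Compound series injected for 1 min each at 50 μL/min, then 10 min dissociation. Running buffer HEPES pH 7.4 with NaCl, P20 and 3% DMSO; target protein was biotinylated avi-tagged cyclophilin on a CAPture surface.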

[3] = molecular target: cyclophilin B (CypB) (Homo sapiens (Human), UniProt P23284); test: Inhibitor binding to cyclophilin proteins by SPR, CypB; design: unit not given here; settings: 1:1 binding model
Summary of the method: as §1

[4] = molecular target: cyclophilin A (CypA) (Homo sapiens (Human), UniProt P62937); test: Inhibitor binding to cyclophilin proteins by SPR, CypA; design: unit not given here; settings: 1:1 binding model;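 also: Single-cycle kinetics on a Biacore T200, compound injected at several concentrations for 1 min each at 50 µL/min, then 10 min dissociation, in HEPES pH 7.4 buffer with 3% DMSO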
[5] = molecular target: organic anion transporting polypeptide 1B1 (OATP1B1) (Homo sapiens (Human), UniProt Q9Y6L6); test: OATP assay in CHO-OATP1B1 cells;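 also: inhibition of probe substrate uptake into the cells, ten minutes exposure, accumulated substrate read by fluorescence once cells were lysed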
Protocol: In order to determine whether the compounds of the present invention interact with hepatic transporters, experiments were carried out that compared the concentration-dependent inhibition toward the organic anion transporting polypeptide 1B1 (OATP1B1) and the multidrug resistance associated protein 2 (MRP2).
The cells were cultured in DMEM/F12 +10% FBS+2 mM Ala-Gln+1% Pen-Strep for a period of two days, and the media was changed one day post-seeding. Prior to the assay, media was aspirated and were washed −3× with HBSS+10 mM HEPES and the solution was equilibrated for 15 min in HBSS+10 mM HEPES. Solutions containing the inhibitor were prepared in HBSS+10 mM HEPES (up to 1% DMSO). […] After 10 min, the substrate or substrate/inhibitor solution was aspirated and the cells were washed 3× with HBSS+10 mM HEPES. The amount of the transported probe substrate was determined by fluorescent photometry after cell lysis, and the IC50 was derived from the concentration-response curve.

[6] = system: genotype 1b subgenomic HCV replicon in Huh7.5 cells; format: cell-based, hepatitis C virus; settings: genotype 1b replicon, 72 h incubation; read-out: RPLN-1b IC50
Summary of the method: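 Huh7.5 cells carrying genotype 1b subgenomic HCV replicon with renilla luciferase-neomycin reporter, in phenol red-free DMEM without G418. Luciferase measured after 72 h compound exposure relative to DMSO-treated cells; cytotoxicity (CC50) by Cell Titer-Glo.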

cyclophilin B (CypB), sequence (P23284 34-216): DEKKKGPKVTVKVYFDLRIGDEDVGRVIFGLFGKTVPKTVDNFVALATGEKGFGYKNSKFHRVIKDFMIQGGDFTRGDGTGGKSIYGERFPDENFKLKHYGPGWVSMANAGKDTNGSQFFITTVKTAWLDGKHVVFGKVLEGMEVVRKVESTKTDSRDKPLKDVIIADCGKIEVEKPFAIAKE
organic anion transporting polypeptide 1B1 (OATP1B1), sequence (Q9Y6L6 whole entry): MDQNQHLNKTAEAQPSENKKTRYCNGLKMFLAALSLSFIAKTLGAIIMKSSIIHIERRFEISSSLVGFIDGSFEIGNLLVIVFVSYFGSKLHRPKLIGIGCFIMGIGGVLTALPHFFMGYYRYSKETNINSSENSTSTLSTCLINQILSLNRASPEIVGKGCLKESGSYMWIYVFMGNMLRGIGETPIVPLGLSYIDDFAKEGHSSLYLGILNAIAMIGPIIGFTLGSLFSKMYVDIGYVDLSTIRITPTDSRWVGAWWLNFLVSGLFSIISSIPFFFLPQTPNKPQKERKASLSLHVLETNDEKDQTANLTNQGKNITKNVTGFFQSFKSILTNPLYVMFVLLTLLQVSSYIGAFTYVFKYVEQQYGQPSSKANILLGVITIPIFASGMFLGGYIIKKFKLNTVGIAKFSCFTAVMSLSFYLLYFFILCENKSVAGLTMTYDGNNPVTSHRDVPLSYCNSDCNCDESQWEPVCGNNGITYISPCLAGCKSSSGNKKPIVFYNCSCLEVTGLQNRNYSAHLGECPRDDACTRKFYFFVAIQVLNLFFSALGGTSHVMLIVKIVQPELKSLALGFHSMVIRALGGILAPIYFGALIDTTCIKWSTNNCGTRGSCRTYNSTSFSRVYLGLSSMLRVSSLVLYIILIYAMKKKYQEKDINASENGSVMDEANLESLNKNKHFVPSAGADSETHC
cyclophilin A (CypA), sequence (P62937 whole entry): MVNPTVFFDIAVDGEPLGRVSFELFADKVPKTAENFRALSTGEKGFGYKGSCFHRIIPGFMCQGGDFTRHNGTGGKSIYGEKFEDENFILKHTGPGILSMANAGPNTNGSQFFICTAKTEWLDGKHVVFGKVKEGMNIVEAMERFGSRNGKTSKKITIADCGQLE
CypF, sequence (P30405 30-207): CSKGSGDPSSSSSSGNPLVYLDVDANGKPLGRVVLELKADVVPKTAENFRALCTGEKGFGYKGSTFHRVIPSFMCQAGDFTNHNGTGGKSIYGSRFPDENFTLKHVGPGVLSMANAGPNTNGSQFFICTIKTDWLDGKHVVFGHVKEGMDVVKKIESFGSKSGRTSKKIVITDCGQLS

C/C=C/C[C@@H](C)[C@@H](O)[C@H]1C(=O)N[C@@H](CC)C(=O)N(C)[C@H](C)C(=O)N(C)[C@@H]([C@@H](C)CN2CCN(S(C)(=O)=O)CC2)C(=O)N[C@@H](C(C)C)C(=O)N(C)[C@@H](CC(C)C)C(=O)N[C@@H](C)C(=O)N[C@H](C)C(=O)N(C)[C@@H](CC(C)C)C(=O)N(C)[C@@H](CC(C)C)C(=O)N(C)[C@@H](C(C)C)C(=O)N1C [Compound 2.17.9, 3-[D-Ala]-4-[(2S,3S)-3-methyl-2-(methylamino)-4-(4-(methylsulfonyl)piperazin-1-yl)butanoyl]-cyclosporin] (cyclo(A[dA][NMeL][NMeL][NMeV][MeBmt][Abu][dNMeA][X48]V[NMeL]))
IC50 [1]: 31.9 µM
CypF Kd [2]: 0.0005 µM
CypB Kd [3]: 0.6
CypA Kd [4]: 0.9
IC50 [5]: 0.4 µM
IC50 [6]: 0.023 µM

C/C=C/C[C@@H](C)[C@@H](O)[C@H]1C(=O)N[C@@H](CC)C(=O)N(C)[C@H](C)C(=O)N(C)[C@@H]([C@@H](C)CN2CCN3C(=O)OCC3C2)C(=O)N[C@@H](C(C)C)C(=O)N(C)[C@@H](CC(C)C)C(=O)N[C@@H](C)C(=O)N[C@H](C)C(=O)N(C)[C@@H](CC(C)C)C(=O)N(C)[C@@H](CC(C)C)C(=O)N(C)[C@@H](C(C)C)C(=O)N1C (stereo partly drawn) [Compound 2.17.10, 3-[D-Ala]-4-[(2S,3S)-3-methyl-2-(methylamino)-4-((S)-3-oxotetrahydro-1H-oxazolo[3,4-a]pyrazin-7(3H)-yl)butanoyl]-cyclosporin] (cyclo(A[dA][NMeL][NMeL][NMeV][MeBmt][Abu][dNMeA][X38]V[NMeL]))
IC50 [1]: 15 µM
CypF Kd [2]: 0.0004 µM
CypB Kd [3]: 0.5
CypA Kd [4]: 0.6
IC50 [5]: 1.4 µM
IC50 [6]: 0.031 µM

C/C=C/C[C@@H](C)[C@@H](O)[C@H]1C(=O)N[C@@H](CC)C(=O)N(C)[C@H](C)C(=O)N(C)[C@@H]([C@@H](C)COC(=O)N2CCN(CC)CC2)C(=O)N[C@@H](C(C)C)C(=O)N(C)[C@@H](CC(C)C)C(=O)N[C@@H](C)C(=O)N[C@H](C)C(=O)N(C)[C@@H](CC(C)C)C(=O)N(C)[C@@H](CC(C)C)C(=O)N(C)[C@@H](C(C)C)C(=O)N1C [Compound 2.17.14, 3-[D-Ala]-4-[(2S,3R)-4-((4-ethylpiperazine-1-carbonyl)oxy)-3-methyl-2-(methylamino)butanoyl]-cyclosporin] (cyclo(A[dA][NMeL][NMeL][NMeV][MeBmt][Abu][dNMeA][X28]V[NMeL]))
IC50 [1]: 8.1 µM
CypF Kd [2]: 0.0005 µM
CypB Kd [3]: 0.4
CypA Kd [4]: 0.5
IC50 [5]: 2.2 µM
IC50 [6]: 0.057 µM

C/C=C/C[C@@H](C)[C@@H](O)[C@H]1C(=O)N[C@@H](CC)C(=O)N(C)[C@H](C)C(=O)N(C)[C@@H]([C@H](C)CCN2CCC(C#N)CC2)C(=O)N[C@@H](C(C)C)C(=O)N(C)[C@@H](CC(C)C)C(=O)N[C@@H](C)C(=O)N[C@H](C)C(=O)N(C)[C@@H](CC(C)C)C(=O)N(C)[C@@H](CC(C)C)C(=O)N(C)[C@@H](C(C)C)C(=O)N1C [Compound 2.18.2, 3-[D-Ala]-4-[(2S,3R)-5-(4-cyanopiperidin-1-yl)-3-methyl-2-(methylamino)pentanoyl]-cyclosporin] (cyclo(A[dA][NMeL][NMeL][NMeV][MeBmt][Abu][dNMeA][X68]V[NMeL]))
IC50 [1]: 7.3 µM
CypF Kd [2]: 0.0006 µM
CypB Kd [3]: 0.7
CypA Kd [4]: 1.1
IC50 [5]: 2.4 µM
IC50 [6]: 0.058 µM

C/C=C/C[C@@H](C)[C@@H](O)[C@H]1C(=O)N[C@@H](CC)C(=O)N(C)[C@H](C)C(=O)N(C)[C@@H]([C@H](C)CCN2CCOC[C@@H]2C)C(=O)N[C@@H](C(C)C)C(=O)N(C)[C@@H](CC(C)C)C(=O)N[C@@H](C)C(=O)N[C@H](C)C(=O)N(C)[C@@H](CC(C)C)C(=O)N(C)[C@@H](CC(C)C)C(=O)N(C)[C@@H](C(C)C)C(=O)N1C [Compound 2.18.4] (cyclo(A[dA][NMeL][NMeL][NMeV][MeBmt][Abu][dNMeA][X67]V[NMeL]))
IC50 [1]: 10.6 µM
CypF Kd [2]: 0.0007 µM
CypB Kd [3]: 0.7
CypA Kd [4]: 1.2
IC50 [5]: 1.7 µM
IC50 [6]: 0.044 µM

C/C=C/C[C@@H](C)[C@@H](O)[C@H]1C(=O)N[C@@H](CC)C(=O)N(C)[C@H](C)C(=O)N(C)[C@@H]([C@H](C)CCN2CC(OC)C2)C(=O)N[C@@H](C(C)C)C(=O)N(C)[C@@H](CC(C)C)C(=O)N[C@@H](C)C(=O)N[C@H](C)C(=O)N(C)[C@@H](CC(C)C)C(=O)N(C)[C@@H](CC(C)C)C(=O)N(C)[C@@H](C(C)C)C(=O)N1C [Compound 2.18.5, 3-[D-Ala]-4-[(2S,3R)-5-(3-methoxyazetidin-1-yl)-3-methyl-2-(methylamino)pentanoyl]-cyclosporin] (cyclo(A[dA][NMeL][NMeL][NMeV][MeBmt][Abu][dNMeA][X71]V[NMeL]))
IC50 [1]: 8.1 µM
CypF Kd [2]: 0.0005 µM
CypB Kd [3]: 0.6
CypA Kd [4]: 0.9
IC50 [5]: 1.4 µM
IC50 [6]: 0.078 µM

C/C=C/C[C@@H](C)[C@@H](O)[C@H]1C(=O)N[C@@H](CC)C(=O)N(C)[C@H](C)C(=O)N(C)[C@@H]([C@H](C)CCN2CCCCC2)C(=O)N[C@@H](C(C)C)C(=O)N(C)[C@@H](CC(C)C)C(=O)N[C@@H](C)C(=O)N[C@H](C)C(=O)N(C)[C@@H](CC(C)C)C(=O)N(C)[C@@H](CC(C)C)C(=O)N(C)[C@@H](C(C)C)C(=O)N1C [Compound 2.18.8, 3-[D-Ala]-4-[(2S,3R)-3-methyl-2-(methylamino)-5-(piperidin-1-yl)pentanoyl]-cyclosporin] (cyclo(A[dA][NMeL][NMeL][NMeV][MeBmt][Abu][dNMeA][X65]V[NMeL]))
IC50 [1]: 1 µM
CypF Kd [2]: 0.0005 µM
CypB Kd [3]: 0.7
CypA Kd [4]: 0.9
IC50 [5]: 2.3 µM
IC50 [6]: 0.045 µM

C/C=C/C[C@@H](C)[C@@H](O)[C@H]1C(=O)N[C@@H](CC)C(=O)N(C)[C@H](C)C(=O)N(C)[C@@H]([C@H](C)CCN2CCN3C(=O)OC[C@@H]3C2)C(=O)N[C@@H](C(C)C)C(=O)N(C)[C@@H](CC(C)C)C(=O)N[C@@H](C)C(=O)N[C@H](C)C(=O)N(C)[C@@H](CC(C)C)C(=O)N(C)[C@@H](CC(C)C)C(=O)N(C)[C@@H](C(C)C)C(=O)N1C [Compound 2.18.9, 3-[D-Ala]-4-[(2S,3R)-3-methyl-2-(methylamino)-5-((S)-3-oxotetrahydro-1H-oxazolo[3,4-a]pyrazin-7(3H)-yl)pentanoyl]-cyclosporin] (cyclo(A[dA][NMeL][NMeL][NMeV][MeBmt][Abu][dNMeA][X74]V[NMeL]))
IC50 [1]: 9.2 µM
CypF Kd [2]: 0.001 µM
CypB Kd [3]: 2.7
CypA Kd [4]: 1.8
IC50 [5]: 2.8 µM
IC50 [6]: 0.17 µM

C/C=C/C[C@@H](C)[C@@H](O)[C@H]1C(=O)N[C@@H](CC)C(=O)N(C)[C@H](C)C(=O)N(C)[C@@H]([C@H](C)CCN2CCN(C3CCC3)CC2)C(=O)N[C@@H](C(C)C)C(=O)N(C)[C@@H](CC(C)C)C(=O)N[C@@H](C)C(=O)N[C@H](C)C(=O)N(C)[C@@H](CC(C)C)C(=O)N(C)[C@@H](CC(C)C)C(=O)N(C)[C@@H](C(C)C)C(=O)N1C [Compound 2.18.10, 3-[D-Ala]-4-[(2S,3R)-5-(4-cyclobutylpiperazin-1-yl)-3-methyl-2-(methylamino)pentanoyl]-cyclosporin] (cyclo(A[dA][NMeL][NMeL][NMeV][MeBmt][Abu][dNMeA][X72]V[NMeL]))
IC50 [1]: 1.6 µM
CypF Kd [2]: 0.0007 µM
CypB Kd [3]: 1.1
CypA Kd [4]: 1.5
IC50 [5]: 2.1 µM
IC50 [6]: 0.096 µM

Source: patent publication US9566312B2, “Cyclic peptides and use as medicines” (priority 2012, dated 2017)
